Tests used:
C. glutomicum ATCC 13032 = test: Metabolic activity after NH4-oAB and Na-oAB addition, batch cultivation in 1 L bioreactors (Example 3, FIG. 3); format: cell-based; conditions: for biomass accumulation after addition: 40 mL of 500 g/L oAB stock solution added after 6.4 h and 23.6 h, FIG. 3
Text: From this it follows that the toxicity of oAB on C. glutomicum ATCC 13032 in presence of high sodium concentrations is reduced as compared to the toxicity in presence of high ammonium concentrations.

[1] = tested on: C. glutomicum strain derived from ATCC 13032 by evolutionary engineering; test: Metabolic activity after NH4-oAB and Na-oAB addition, batch cultivation in 1 L bioreactors (Example 2); format: cell-based, Corynebacterium glutomicum; conditions: 40 mL of 500 g/L oAB stock solution added at 7 h and 24 h; FIG. 2
Experimental: Both bioreactors: addition of 36 g/L glucose (added as stock solution) after 7.5 h and 24.5 h to prevent a glucose limitation.
A C. glutomicum strain derived from ATCC 13032 was used to compare the metabolic activity after NH4-oAB and Na-oAB addition during the cultivation. This strain was derived from Corynebacterium glutomicum ATCC 13032 by evolutionary engineering in order to increase its resistance against oAB. It was not further genetically modified. Thus it was not capable of oAB-production.

[2] = tested on: modified C. glutamicum production strain; conditions: for decrease of OTR signal after addition: 292 mmol salt (70 mL stock solution) added after 64 h, Na-oAB added before (4 x 20 mL of 500 g/L); for final dry weight concentration: after a cultivation time of 91 hours, salt added after 64 h in the presence of oAB
[3] = tested on: modified C. glutaomicum production strain; test: Evaluation of the maximum tolerable oAB concentration, batch cultivation in 1 L bioreactor (Example 1); format: cell-based, Corynebacterium glutaomicum
Experimental: FIG. 1: Evaluation of the maximum tolerable oAB concentration during batch cultivation in a 1 L lab-scale bioreactor with a modified C. glutaomicum production strain.
The maximum tolerable oAB concentration in the presence of sodium ions in the medium was tested with a modified C. glutaomicum production strain. This strain was derived from Corynebacterium glutaomicum ATCC 13032 by evolutionary engineering in order to increase its resistance against oAB. This strain was then genetically modified to make it capable of oAB-production and comprised the following modifications. The incorporated modifications have the effect of reduced expression of the trpD gene, encoding anthranilate phosphoribosyl transferase, knock out of gene ppc, encoding PEP Carboxylase, constitutive overexpression of heterologous aroG^D146N and trpEG^540F genes from E. coli, encoding feedback resistant DAHP synthase and anthranilate synthase, respectively, constitutive overexpression of the gene aroL from E. coli, encoding shikimate kinase.
Glucose was added as stock solution after 40 h, 48 h, 63 h, 65 and 71.5 h to prevent a glucose limitation.

Compound | biomass accumulation after addition (C. glutomicum ATCC 13032) | OTR signal after addition [1] | biomass concentration after addition [1] | decrease of OTR signal after addition [2] | final dry weight concentration [2] [g/L] | also measured
N.Nc1ccccc1C(=O)O [NH4-oAB] | growth inhibition after 24 h | constant OTR signal | reduced biomass accumulation |  |  | o-aminobenzoate concentration at which cell growth (dry weight) stops (C. glutomicum ATCC 13032; according to FIG. 3): > 50 g/L; o-aminobenzoate concentration at which the metabolic activity of bacterial cells (OTR) is limited (C. glutomicum ATCC 13032; according to FIG. 3, concentration not including the mass of the cation): more than 25 g/L
Cl.N [NH4Cl] |  |  |  | about 20% | 6.8 | 
Nc1ccccc1C(=O)[O-].[Na+] [Na-oAB] | biomass accumulation continued | continued to increase | continued to increase |  |  | 
[Cl-].[Na+] [NaCl] |  |  |  | no effect | 7.8 | 
Nc1ccccc1C(=O)O [oAB, 2-aminobenzoic acid] |  |  |  |  |  | oAB concentration at which an increase in biomass concentration was still observed ([3]; oAB added stepwise as sodium salt (dissolved with NaOH at pH 7), pH 7 controlled with NH4OH, 30° C.): 80 g/L; oAB concentration resulting in a decrease of the metabolic activity (declining OTR signal) and no further increase in biomass ([3]; oAB increased from 80 g/L after 71 h, added as sodium salt (dissolved with NaOH at pH 7)): 100 g/L

Reference: patent US20200263213A1, “METHODS FOR INCREASING THE TOLERANCE OF MICROBIAL CELLS TOWARDS ANTHRANILIC ACID BY LIMITING THE AMOUNT OF AMMONIA IN THE CULTURE MEDIUM” (priority 2017, published 2020)
